Measurements as given in publication PMC8780828 (Viruses, 2021).

What was measured:
[1] = system: NL4-3∆Env-NanoLuc/SARS-CoV-2 mutant pseudovirus N501Y; format: cell-based
[2] = system: NL4-3∆Env-NanoLuc/SARS-CoV-2 mutant pseudovirus ∆69–70; format: cell-based
[3] = system: NL4-3∆Env-NanoLuc/SARS-CoV-2 mutant pseudovirus P681H; format: cell-based
[4] = system: NL4-3∆Env-NanoLuc/SARS-CoV-2 mutant pseudovirus N501Y/∆69–70; format: cell-based
[5] = system: NL4-3∆Env-NanoLuc/SARS-CoV-2 mutant pseudovirus N501Y/∆69–70/P681H; format: cell-based
[6] = system: NL4-3∆Env-NanoLuc/SARS-CoV-2 mutant pseudovirus E484K; format: cell-based
[7] = system: NL4-3∆Env-NanoLuc/SARS-CoV-2 mutant pseudovirus D614G; format: cell-based
[8] = system: NL4-3∆Env-NanoLuc/SARS-CoV-2 mutant pseudovirus N501Y/D614G; format: cell-based
[9] = system: NL4-3∆Env-NanoLuc/SARS-CoV-2 mutant pseudovirus E484K/N501Y; format: cell-based
[10] = system: NL4-3∆Env-NanoLuc/SARS-CoV-2 mutant pseudovirus E484K/D614G; format: cell-based
[11] = system: NL4-3∆Env-NanoLuc/SARS-CoV-2 mutant pseudovirus E484K/N501Y/D614G; format: cell-based
[12] = system: NL4-3∆Env-NanoLuc/SARS-CoV-2 mutant pseudovirus D950N; format: cell-based
[13] = system: NL4-3∆Env-NanoLuc/SARS-CoV-2 mutant pseudovirus D614G/P681R; format: cell-based
[14] = system: NL4-3∆Env-NanoLuc/SARS-CoV-2 mutant pseudovirus D614G/D950N; format: cell-based
[15] = system: NL4-3∆Env-NanoLuc/SARS-CoV-2 mutant pseudovirus D614G/P681R/D950N; format: cell-based
[16] = molecular target: SARS-CoV-2 spike (active trimer) His-tag (Severe acute respiratory syndrome coronavirus 2, UniProt P0DTC2, K986P/R682S/R685S/V987P); format: binding

| SMILES | IC50 [1] | IC50 [2] | IC50 [3] | IC50 [4] | IC50 [5] | IC50 [6] | IC50 [7] | IC50 [8] | IC50 [9] | IC50 [10] | IC50 [11] | IC50 [12] | IC50 [13] | IC50 [14] | IC50 [15] | ka [16] | kd [16] |
| --- | --- | --- | --- | --- | --- | --- | --- | --- | --- | --- | --- | --- | --- | --- | --- | --- | --- |
| Cc1c(C(=O)O)cccc1-c1ccc(/C=C2\SC(=S)N(CCc3ccccc3)C2=O)o1 [NBCoV5] | > 2000 nM | > 2000 nM | 1720 ± 215 nM | > 2000 nM | > 2000 nM | > 2000 nM | 1730 ± 62.5 nM | > 2000 nM | > 2000 nM | 1850 ± 124 nM | > 2000 nM | > 2000 nM | > 2000 nM | > 2000 nM | > 2000 nM |  |  |
| O=C(O)c1cccc(-c2ccc(/C=C3\SC(=S)N(CCc4ccccc4)C3=O)o2)c1 [NBCoV2] | 49 ± 0.5 nM | 55 ± 0.5 nM | 51 ± 0.3 nM | 66 ± 1 nM | 79 ± 14 nM | 45 ± 0.2 nM | 61 ± 0.3 nM | 59 ± 13 nM | 36 ± 0.4 nM | 35 ± 0.2 nM | 43 ± 0.5 nM | 88.7 ± 6 nM | 65 ± 18 nM | 26 ± 2 nM | 53 ± 12 nM | 872 M⁻¹ s⁻¹ | 0.00468 s⁻¹ |
| O=C(O)c1cc(-c2ccc(/C=C3\SC(=S)N(CCc4ccccc4)C3=O)o2)ccc1F [NBCoV3] | 44.5 ± 0.5 nM | 69 ± 7 nM | 55 ± 0.3 nM | 94 ± 16 nM | 232 ± 17 nM | 80 ± 10.6 nM | 145 ± 28 nM | 104 ± 1 nM | 42 ± 1 nM | 44 ± 0.8 nM | 101 ± 2 nM |  |  |  |  |  |  |
| O=C(O)c1cc(-c2ccc(/C=C3\SC(=S)N(CCc4ccccc4)C3=O)o2)ccc1Cl [NBCoV1] | 52.5 ± 0.2 nM | 48 ± 3 nM | 35 ± 0.5 nM | 46 ± 0.5 nM | 57 ± 0.5 nM | 42 ± 0.7 nM | 56 ± 0.6 nM | 57 ± 2 nM | 32 ± 0.5 nM | 33 ± 0.5 nM | 45 ± 2 nM | 47.7 ± 15 nM | 49 ± 13 nM | 33 ± 10 nM | 58 ± 7 nM | 1040 M⁻¹ s⁻¹ | 0.00162 s⁻¹ |
| Cc1ccc(-c2ccc(/C=C3\SC(=S)N(CCc4ccccc4)C3=O)o2)cc1C(=O)O [NBCoV4] | 51 ± 0.4 nM | 53 ± 0.5 nM | 44 ± 0.4 nM | 53 ± 11 nM | 158 ± 31 nM | 45 ± 0.4 nM | 58 ± 0.4 nM | 77 ± 29 nM | 51 ± 5 nM | 44 ± 3 nM | 43 ± 2.5 nM | 207 ± 29 nM | 148 ± 30 nM | 77.5 ± 16.5 nM | 239 ± 7 nM |  |  |
